Data published in patent publication US20160340704A1, “METHOD OF MAKING A BENZYLISOQUINOLINE ALKALOID (BIA) METABOLITE, ENZYMES THEREFORE” (VALORBEC SOCIÉTÉ EN COMMANDITE, priority 2014, published 2016).
Entries after “also recorded” stand apart in the source; their conditions may differ.

What was measured:
[1] = Relative abundance of BIAs in culture supernatants and cell extracts; type: cell-based, Saccharomyces cerevisiae; conditions: for fraction in which the BIA is mainly found (supernatant or cell extract): strains with heterologous enzymes
Protocol: Whole cell substrate feeding assays were used to test the function of each enzyme block individually and in combinations. To prepare the cells for the feeding assays, a colony of S. cerevisiae was inoculated in YNB-DO-GLU and incubated for 24 hours. Cultures were diluted to an OD600 of 0.8 into 6 ml of fresh YNB-DO-GLU and incubated for an additional 7 hours. Cells were harvested by centrifugation at 2000×g for 2 min. Supernatants were decanted and cells were suspended in 2 ml of Tris-EDTA (10 mM Tris-HCl, 1 mM EDTA, pH 8), containing 10 μM of one of the following feeding substrates: (R,S)-norlaudanosoline, (S)-reticuline, (S)-scoulerine or (S)-stylopine. Cells were incubated for 16 hours then harvested by centrifugation at 15000×g for 1 min. For BIA extraction from cells, the cell pellet was suspended in 500 μl methanol with ˜50 μl acid-washed glass beads and vortexed for 30 min. Cell extracts were clarified by centrifugation at 15000×g for 1 min and used directly for LC-MS analysis.
Detection of alkaloids in the sanguinarine biosynthetic pathway was performed by FT-MS using a 7T-LTQ FT ICR instrument (Thermo Scientific, Bremen, Germany). Alkaloids were separated by reverse phase HPLC (Perkin Elmer SERIES 200 Micropump, Norfolk, Conn.) using an Agilent Zorbax™ Rapid Resolution HT C18 2.1*30 mm, 1.8 micron column. Solvent A (0.1% acetic acid) and solvent B (100% acetonitrile) were used in a gradient elution to separate the metabolites of interest as follows: 0-1 min at 100% A, 1-6 min 0 to 95% B (linear gradient), 7-8 min 95% B, 8-8.2 min 100% A, followed by a 1 min equilibration at 100% A. Three microliters of either cell extract or supernatant fraction were loaded on the HPLC column run at a flow rate of 0.25 ml/min. Dilutions in methanol were performed to keep alkaloid concentrations within the range of standard curve values and avoid saturating FT signals. Following LC separation, metabolites were injected into the LTQ-FT-MS (ESI source in positive ion mode) using the following parameters: resolution, 100000; scanning range, 250 to 450 AMU; capillary voltage, 5 kV; source temperature, 350° C.; AGC target setting for full MS were set at 5×10^5 ions. Identification of alkaloids was done using retention time and exact mass (<2 ppm) of the monoisotopic mass of the protonated molecular ion [M+H]^+. LC-FT-MS data were processed using the freely available program Maven^56. When available authentic standards were used to confirm the identity of the BIA intermediates (using HPLC retention times and exact masses) and to quantify sanguinarine alkaloids. When unavailable, we assumed equal ionization efficiency between an intermediate and the closest available quantifiable alkaloid (m/z 302 and m/z=316: reticuline; cheilanthifoline: stylopine).
To confirm functional expression of enzymes, plasmids expressing each of the three blocks were individually transformed into S. cerevisiae and cultures of the strains were supplemented with either (R,S)-norlaudanosoline, (S)-reticuline, (S)-scoulerine or (S)-stylopine. Functional expression was verified by detection of the expected end products. As negative controls, yeast strains lacking enzyme blocks were incubated with each of the pathway intermediate to evaluate substrate recovery and to assess the relative proportion recovered in cellular extracts versus culture supernatants.

cheilanthifoline = assay: CYP719 Ring A closure of cheilanthifoline to stylopine in GC1333; type: cell-based, Saccharomyces cerevisiae
Protocol: FIG. 11A-B: showing conversion of (S)-cheilanthifoline (FIG. 11A) or (S)-nandinine (FIG. 11B) to (S)-stylopine by purchased CYP719s. Plasmids harboring CYP719s were transformed into GC1333 containing an integrated PsCPR. Strains were incubated with the appropriate BIA overnight, and then total BIAs were extracted and total molar ratios were compared. PsSPSΔN was used as a control.
The 10 CYP719s with 95% activity on Ring A of scoulerine and the 10 CYP719s with activity on Ring B of scoulerine were tested for activity on cheilanthifoline and nandinine, respectively, in order to generate a branched stylopine synthesis pathway. […] CYP719s PsCFS and EX101, capable of converting >98% of scoulerine to cheilanthifoline and nandinine, respectively, were incubated with scoulerine. After 16 h, cells were pelleted and the supernatant fraction was collected. The supernatant was then applied to fresh yeast strains in order to supplement them with either TE containing nandinine or cheilanthifoline as necessary.

Row | Molecule | conversion of cheilanthifoline to stylopine (cheilanthifoline) | further results
1 | Oc1ccc(CC2NCCc3cc(O)c(O)cc32)cc1O (racemic) [(R,S)-norlaudanosoline] |  | share of fed BIA found in the cell extract after 16 hours of incubation ([1]; wild-type / negative control cells, 16 hours): 10%; share of fed BIA found in the cell extract, initially ([1]; wild-type cells, 0 hours): 3%
2 | c1cc2c(c3c1C[C@H]1c4cc5c(cc4CCN1C3)OCO5)OCO2 [(S)-stylopine] |  | fraction in which the BIA is mainly found (supernatant or cell extract) ([1]; 16 hours): predominantly found in the cell extract; also recorded: mostly found in the cellular extract fraction
3 | COc1cc2c(cc1O)C1Cc3ccc4c(c3CN1CC2)OCO4 (stereo not drawn) [Cheilanthifoline, cheilanthifoline] |  | fraction in which the BIA is mainly found (supernatant or cell extract) ([1]; 16 hours): mainly found in the supernatant
4 | C[N@@+]12CCc3cc4c(cc3[C@@H]1Cc1ccc3c(c1C2)OCO3)OCO4 [N-methylstylopine] |  | share of BIA found in the culture supernatant ([1]; Block 3 feeding assay, 16 hours): Approximately 55%
5 | CN1Cc2c(ccc3c2OCO3)-c2ccc3cc4c(cc3c21)OCO4 [dihydrosanguinarine] |  | fraction in which the BIA is mainly found (supernatant or cell extract) ([1]; 16 hours): mostly found in the cellular extract fraction
6 | EX96: CYP719 from Sanguinaria canadensis, SEQ ID NO: 375 (protein, listed as Sanguinaria canadensis) MEFEKIMMSNPWILAATTAVVFISITAIFFRRKSSSMEWPTGPKTLPIIGNMHLLGGTALHVVLHNFAKIYGNVMTIWIGSWRPVIVVSDIDRAWEVLVNKSSDYSARDMPEITKIISADWKTISTSDSGPFWTNLRKGLQNVALSPHNLAAQARFQERDISKMIETLKEEAALNNGIVKPLDHLKKATVRLISRLIYGQEFDNNKYVEDMHHAIEELIRVSGYARLAEAFYYAKYLPSHKKAVRDVEEANRRVKNLVRPFLSSNPPTNCYLHFLRTQNYPEEVIIFAIFEAYLLGVDSTSSTTAWALAFLVREPNVQEKLYQELKNFTTNNDRKMLKVEDINKLQYLQAVIKETMRMKPIAPLAIPHKACKETSLMGSKVDKGTRVMVNIYALHHNQKVWKEPYKFMPERFLETDNQDGNVGKAMEQSLLPFSAGMRICAGMELGKLQFTFSLANLVNAFKWSCVSDGVLPDMSDQLGFVLLMKNPLEARIVPRS | > 98% | 
7 | EX56: CYP719 from Chelidonium majus, SEQ ID NO: 335 (protein, listed as Chelidonium majus) MLLILIMDFRNSRSNLNPAKMEELMSDPWIITATTLAVVILLTTILRRKSSSMKWPKGPKTLPIIGNMHLFGGTDLHVVLYNIAKVYGNVMTIWIGSWRPVIVISDIERAWEVLVNKSSDYSARDMPEITKLISSDWKTISTSDAGAFWTNLRKGLQNVALSPHNLASQFQFQESDIKKLIETIKEEAAVNNGIVKPLDHLKKAMVRLISRLVFGQDFDNDEYVEGMHHAIEELIRVSGYARLAEAFYYAKYLPSHKKAVRDVEEANRRVQKLVRPFLSLNPPTNTYLHFLRSQNYSEEVIIFAIFEAYLLGVDSTSSTTAWALAFLIREPNVQEKLYQELKNFTVKNGRDMLKVEDINKLPYLQATIKETMRMKPIAPLAIPHKACRDTSLKGSKIDKGTRVMVNIYALHHNEKIWKEPFKFMPERFLQTEGENGKAMEQSFLPFSAGMRICAGMELGKLQFNFALANLVNAFKWSCVADGVLPDMSDQLGFVLVMKTPLEARITSRC | > 98% | 
8 | EX101: CYP719 from Stylophorum diphyllum, SEQ ID NO: 380 (protein, listed as Stylophorum diphyllum) MESLIDFSNPAKMEELMSNPWIITAITLAVVIIMMTIFRRKSSSMKWPKGPKTLPIIGNMHLFGGTDLHVVLYNIAKVYGNVMTIWIGSWRPVIVISDIERAWEVLVNKSSDYSARDMPEITKLISSDWKTISTSDAGAFWTNLRKGLQNVALSPHNLASQFQFQESDIKKLIETIKEEGAVNNGIVKPLDHLKKAMVRLISRLIFGQDFDNDKYVEGMHHAIEELIRVSGYARLAEAFYYAKYLPSHKKAVRDVEEANRRVQKLVRPFLSLNPPTNTYLHFLRSQNYSEEVIIFAIFEAYLLGVDSTSSTTAWALAFLIREPNVQEKLYQELKNFTVKNGRDMLKVEDINKLPYLQATIKETMRMKPIAPLAIPHKACRDTSLMGSKIDKGTRVMVNIYALHHNEKIWKEPFKFMPERFLQTEGEVNGKAMEQSFLPFSAGMRICAGMELGKLQFNFALANLVNAFKWSCVADGVLPDMSDQLGFVLVMKTPLEARITPRC | > 98% | 
9 | EX42: CYP719 from Argemone mexicana, B1NF19.1, SEQ ID NO: 321 (protein, listed as Argemone mexicana) MEEKIMTNNSPWILTSSTTTTTTILLSLLFTIFIILRRNKSSSSKMVWPTGPKTLPIIGNMNILGGTALHVVLHNLAKTYGNVMTIWIGSWRPVIVVSDIDRAWEVLVNKSSDYSARDMPEITKLATADWKTISSSDSGPFWTNLRKGLQNVALSPQNLSSQSKFQERDIIKTIQNLKEEAKMNNGIVKPLDHLKKAMVRLISRLIYGQDFDNDEYVEEMHHTIEELIRVSGYARLAEAFYYAKYLPSHKKAVREVLQANQRVQNLVRPLLSLNSPTNTYLHFLRSQNYEDEVIIFAIFEAYLLGVDSTSSTTAWALAYLIREPNVQEKLYEELKNFTNDNDRKMVKFEDLNKLQYLQAVVKETMRMKPIAPLAIPHKACRETSLMGRKVNQGTRVMVNIYALHHNQNVWKEPYKFNPERFLQKNQDGVDGKAMEQSLLPFSAGMRICAGMELGKLQFSFALANLVNAFKWSCVSDGVFPDMSDQLGFVLLMKTPLEAGIVPRM | > 98% | 
10 | EX67: CYP719 from Glaucium flavum, SEQ ID NO: 346 (protein, listed as Glaucium flavum) MEMKSSVVFSYPAMEELFKSNPWVITGTTLAVLILMTTMFRKKSLSMKWPKGPKTLPIIGNMHLLGGTNLQVILHNMSKVYGNVMTIWIGSWRPVIVVSDIERAWEVLVNKSSDYSGRDMPEITKIISADWKTISTSDSGPHWTNLRKGLQNVALSPHNLAAQFQFQERDICKLIETLKEEAKLNNGIVKPLDHLKKATIRLISRLVFGQDFDNSKYVEDMHHAIEELIRVSGYARLADAFYYAKYLPSQKKAVRDVEEAQRRVQRLVRPFLSLNPPTNCYLHFLRSQNYSDEVIIFAIFEAYLLGVDSTSSTTAWALAFLVREPNVQEKLYQELKNFTAKNGREMLKVEDINKLPYLQAVIKETMRMKPIAPLAIPHKACRDTSLKGRKIDKGTQIMVNIYALHHNENVWKEPFKFMPERFLQTDQDVNGKAMDQSLLPFSAGMRICAGMELGKLQFSFSLANLLNTFQWSCVADGVLPDMSDQLGFVLLMKTPLEARITPRC | > 98% | 
11 | EX76: CYP719 from Nandina domestica, SEQ ID NO: 355 (protein, listed as Nandina domestica) MEESFWIVSATIVVVFVIATMFRKSSSISSKTEWPAGPKKLPVIGNLHQLGGDVLHVVLANLAKVYGTVMTVWVGSWKPMIVISDIDRAWEVLVNKSSDYSGRAMPEITEIISAKGKTISTSDSGPHWSNLRKGLQNVALSPHNIAAQSRFQESDITKMIKTLKQEAASNNGIVQPLDHLKKSTVRLISRLIFGQDFDDDEYVEAMHLAVEELIRVSGYARLAEAFYYAKYLPSHKRAVSEVWEANRRVKRIVKPRLSANPPPNCYLHFLSSQDYSEEMIIFAIFEAYLLGVDSTSSTTAWALGFLIREPKVQERLYQELKNCAGENGLIKVEDINKLPYLQAVLKETMRMKPIAPLAIPHKAVRETSLAGNKVEPGTRVMVNLYAIHHNPKVWIDPHKFKPERFLQGEENGGGNLKLMEQSLLPFSAGMRTCAGMELGKLQFGFSLANLVNAFQWDCAKKGMFPDMSDLLGFVLLMKTPLQAKIVPRGSPSINGY | > 98% | 
